Assay results: patent publication US20110098298A1, “New Pyridin-3-Amine Derivatives” (priority 2006, published 2011)

Experiments:
[1] = tested on: TNFα production in human monocytic cell line THP-1; test: Inhibition of LPS-induced TNFα production in THP-1 cells; format: cell-based; settings: LPS 10 μg/ml, 5 h, TNFα ELISA
Method: The activity of compounds in inhibiting TNFα production was measured in a cellular assay using the human monocytic cell line THP-1. For this purpose, 2×10^5 cells/well were plated in tissue-culture treated round-bottom 96-well plates in RPMI (containing 10% FCS, L-Gln 2 mM, Hepes buffer 10 mM, sodium pyruvate 1 mM, glucose 4.5 gr/L, HNaCO3 1.5 g/L and beta-mercaptoethanol 50 μM), together with compounds at the desired test concentration and LPS (Sigma, L2630) at a final 10 μg/ml concentration. Compounds were resuspended in 100% DMSO at a concentration of 1 mM and titrated thereof in 10× dilutions in medium. Controls included stimulated cells alone and stimulated cells treated with the highest concentration of compound vehicle (1% DMSO). Cells were incubated for 5 h at 37° C. in a 5% CO2 atmosphere. Cell supernatant was recovered by centrifugation and diluted 5-fold prior to testing in a standard human TNFα ELISA (RnD systems).
Data were analyzed by non-linear regression (Hill equation) to generate a dose-response curve. The calculated IC50 value is the concentration of the test compound that caused a 50% decrease in the maximal TNFα production.

[2] = biological target: T1, human p38alfa (SAPKa) enzyme (Homo sapiens, UniProt Q16539); test: p38alpha enzymatic inhibition assay (FRET, ATF2 substrate); format: biochemical; settings: 1 h pre-incubation, ATP 60 μM, ATF2 0.62 μM, 25° C., read-out: p38α IC50
T1 construct: purchased University of Dundee
Method: Enzymatic activity assay was performed in 96-well microtiter plates (Corning, catalog number # 3686) using a total volume of 50 μl of an assay buffer composed of 50 mM HEPES pH 7.5, 10 mM MgCl2, 1.75 mM Na3VO4.
Various concentrations of the test compound or vehicle controls were pre-incubated for one hour with 0.055 μg/ml of the human p38alfa (SAPKa) enzyme (obtained from University of Dundee). […] Addition of the detection reagents, streptavidin-XL665 and anti-phosphoresidue antibody coupled to Europium cryptate, caused the juxtaposition of the cryptate and the XL665 fluorophore, resulting in fluorescence energy transfer (FRET). The FRET intensity depends on the amount of bounded cryptate antibody, which is proportional to the extent of substrate phosphorylation. FRET intensity was measured using Victor 2V spectrofluorometer. Data were analyzed by non-linear regression (Hill equation) to generate a dose-response curve. The calculated IC50 value is the concentration of the test compound that caused a 50% decrease in the maximal FRET intensity.

T1 sequence (Q16539 whole entry): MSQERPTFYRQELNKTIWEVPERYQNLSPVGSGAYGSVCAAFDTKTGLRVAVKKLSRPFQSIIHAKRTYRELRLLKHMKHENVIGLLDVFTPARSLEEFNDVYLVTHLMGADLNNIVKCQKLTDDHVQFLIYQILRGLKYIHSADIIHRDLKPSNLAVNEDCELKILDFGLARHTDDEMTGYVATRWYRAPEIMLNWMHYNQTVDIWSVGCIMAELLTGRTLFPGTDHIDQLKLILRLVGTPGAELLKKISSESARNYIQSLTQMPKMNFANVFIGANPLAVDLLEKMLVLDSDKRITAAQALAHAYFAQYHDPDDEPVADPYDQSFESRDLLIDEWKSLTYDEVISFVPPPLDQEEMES

Row | Compound | IC50 [1] | IC50 [2]
1 | Nc1c(C(=O)c2ccc(F)cc2F)ccnc1-c1ccccc1Cl [Example 25, [3-Amino-2-(2-chlorophenyl)pyridin-4-yl](2,4-difluorophenyl)methanone] | 130 nM | 251 nM
2 | Nc1c(C(=O)c2ccc(F)cc2F)cc[n+]([O-])c1-c1ccccc1Cl [Example 26, [3-Amino-2-(2-chlorophenyl)-1-oxidopyridin-4-yl](2,4-difluorophenyl)methanone] | 76 nM | 
3 | Nc1c(C(=O)c2ccc(F)cc2F)cc[n+]([O-])c1-c1c(Cl)cccc1Cl [Example 32, [3-Amino-2-(2,6-dichlorophenyl)-1-oxidopyridin-4-yl](2,4-difluorophenyl)methanone] | 19.4 nM | 
4 | Cc1cccc(C)c1-c1c(N)c(C(=O)c2ccc(F)cc2F)cc[n+]1[O-] [Example 36, [3-Amino-2-(2,6-dimethylphenyl)-1-oxidopyridin-4-yl](2,4-difluorophenyl)methanone] | 33 nM | 
5 | Cc1cc(O)ccc1-c1nccc(C(=O)c2ccc(F)cc2F)c1N [Example 47, [3-Amino-2-(4-hydroxy-2-methylphenyl)pyridin-4-yl](2,4-difluorophenyl)methanone] | 402 nM | 277 nM
6 | Cc1cc(O)ccc1-c1c(N)c(C(=O)c2ccc(F)cc2F)cc[n+]1[O-] [Example 48, [3-Amino-2-(4-hydroxy-2-methylphenyl)-1-oxidopyridin-4-yl](2,4-difluorophenyl)methanone] | 84 nM | 
7 | Nc1c(C(=O)c2ccc(F)cc2F)ccnc1-c1cccc2c1OCO2 [Example 79, [3-Amino-2-(1,3-benzodioxol-4-yl)pyridin-4-yl](2,4-difluorophenyl)methanone] | 53 nM | 103 nM
8 | Cc1ccccc1-c1c(N)c(C(=O)c2ccccc2Cl)cc[n+]1[O-] [Example 82, [3-Amino-2-(2-methylphenyl)-1-oxidopyridin-4-yl](2-chlorophenyl)methanone] | 118 nM | 31 nM
9 | Cc1cccc(C(=O)c2cc[n+]([O-])c(-c3ccccc3C)c2N)c1 [Example 92, [3-Amino-2-(2-methylphenyl)-1-oxidopyridin-4-yl](3-methylphenyl)methanone] | 54 nM | 34 nM
10 | Cc1cccc(C(=O)c2cc[n+]([O-])c(-c3c(F)cccc3F)c2N)c1 [Example 98, [3-Amino-2-(2,6-difluorophenyl)-1-oxidopyridin-4-yl](3-methylphenyl)methanone] | 48 nM | 20 nM
11 | Nc1c(C(=O)c2cccc(F)c2)ccnc1-c1cccc2c1OCO2 [Example 109, [3-Amino-2-(1,3-benzodioxol-4-yl)pyridin-4-yl](3-fluorophenyl)methanone] | 349 nM | 359 nM
12 | COc1ccccc1C(=O)c1cc[n+]([O-])c(-c2c(F)cccc2F)c1N [Example 118, [3-Amino-2-(2,6-difluorophenyl)-1-oxidopyridin-4-yl](2-methoxyphenyl)methanone] | 140 nM | 86 nM
13 | COc1ccccc1C(=O)c1cc[n+]([O-])c(-c2c(C)cccc2C)c1N [Example 120, [3-Amino-2-(2,6-dimethylphenyl)-1-oxidopyridin-4-yl](2-methoxyphenyl)metha-none] | 98 nM | 146 nM
